Results as given in the supplement of paper PMC10307832.

Tests used:
Test in all cases: relative viability (nuclei count vs DMSO), 5 days (fraction); higher = more cells survive
[1] = compound: C1/C(=C\C2=CC=CS2)/C(=O)/C(=C/C3=CC=CS3)/C1 + NC(=O)Nc1cc(-c2cccc(F)c2)sc1C(=O)N[C@H]1CCCNC1 [AZD7762] (partner 0.2 µM)
In short: (§1)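 Values are medians from duplicate plates. Each reflects relative viability, defined as the nuclei count of treated wells over that of vehicle wells. Lung cancer cell lines in 1536-well plates were pin-tool dosed one day after seeding with one drug alone or with a fixed anchor-drug dose plus five library-drug doses (not always all listed) in √10 steps, then fixed, stained and imaged at 4× after 5 days.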

[2] = compound: C1/C(=C\C2=CC=CS2)/C(=O)/C(=C/C3=CC=CS3)/C1 + Nc1nc2[nH]cc(CCc3ccc(C(=O)N[C@@H](CCC(=O)O)C(=O)O)cc3)c2c(=O)[nH]1 [Pemetrexed] (partner 0.2 µM)
In short: as §1

[3] = compound: C[C@]12O[C@H](C[C@]1(O)CO)n1c3ccccc3c3c4c(c5c6ccccc6n2c5c31)CNC4=O [Lestaurtinib] + CC(=O)Nc1cccc(-n2c(=O)n(C3CC3)c(=O)c3c(Nc4ccc(I)cc4F)n(C)c(=O)c(C)c32)c1 [Trametinib] (partner 0.02 µM)
In short: as §1

[4] = compound: C1/C(=C\C2=CC=CS2)/C(=O)/C(=C/C3=CC=CS3)/C1 + Nc1ncn([C@H]2C[C@H](O)[C@@H](CO)O2)c(=O)n1 [Decitabine] (partner 2 µM)
In short: as §1

## LXF-289
[1]; first compound 0.2 µM
  relative viability: 1.07
[1]; first compound 0.6325 µM
  relative viability: 1.13
[1]; first compound 2 µM
  relative viability: 1.16
[1]; first compound 6.325 µM
  relative viability: 1
[1]; first compound 20 µM
  relative viability: 1.07
[2]; first compound 0.2 µM
  relative viability: 0.911
[2]; first compound 0.6325 µM
  relative viability: 0.839
[2]; first compound 2 µM
  relative viability: 0.889
[2]; first compound 6.325 µM
  relative viability: 0.858
[2]; first compound 20 µM
  relative viability: 0.852
[3]; first compound 0.005 µM
  relative viability: 0.66
[3]; first compound 0.01581 µM
  relative viability: 0.691
[3]; first compound 0.05 µM
  relative viability: 0.494
[3]; first compound 0.1581 µM
  relative viability: 0.467
[3]; first compound 0.5 µM
  relative viability: 0.159
[4]; first compound 0.2 µM
  relative viability: 0.371
[4]; first compound 0.6325 µM
  relative viability: 0.386
[4]; first compound 2 µM
  relative viability: 0.355
[4]; first compound 6.325 µM
  relative viability: 0.373
[4]; first compound 20 µM
  relative viability: 0.344

## NCI-H520
[2]; first compound 0.2 µM
  relative viability: 0.644
[2]; first compound 0.6325 µM
  relative viability: 0.623
[2]; first compound 2 µM
  relative viability: 0.727
[2]; first compound 20 µM
  relative viability: 0.65
[3]; first compound 0.005 µM
  relative viability: 0.715
[3]; first compound 0.01581 µM
  relative viability: 0.676
[3]; first compound 0.05 µM
  relative viability: 0.534
[3]; first compound 0.1581 µM
  relative viability: 0.42
[3]; first compound 0.5 µM
  relative viability: 0.211
[4]; first compound 0.2 µM
  relative viability: 0.597
[4]; first compound 0.6325 µM
  relative viability: 0.518
[4]; first compound 2 µM
  relative viability: 0.548
[4]; first compound 20 µM
  relative viability: 0.492

## NCI-H661
[2]; first compound 0.2 µM
  relative viability: 0.914
[2]; first compound 0.6325 µM
  relative viability: 1.01
[2]; first compound 2 µM
  relative viability: 0.949
[2]; first compound 6.325 µM
  relative viability: 0.806
[2]; first compound 20 µM
  relative viability: 0.959
[3]; first compound 0.005 µM
  relative viability: 0.609
[3]; first compound 0.01581 µM
  relative viability: 0.633
[3]; first compound 0.05 µM
  relative viability: 0.508
[3]; first compound 0.1581 µM
  relative viability: 0.607
[3]; first compound 0.5 µM
  relative viability: 0.321
[4]; first compound 0.2 µM
  relative viability: 0.605
[4]; first compound 0.6325 µM
  relative viability: 0.567
[4]; first compound 2 µM
  relative viability: 0.56
[4]; first compound 6.325 µM
  relative viability: 0.475
[4]; first compound 20 µM
  relative viability: 0.496

## NCI-H727
[1]; first compound 0.2 µM
  relative viability: 0.574
[1]; first compound 0.6325 µM
  relative viability: 0.527
[1]; first compound 2 µM
  relative viability: 0.731
[1]; first compound 20 µM
  relative viability: 0.682
[3]; first compound 0.005 µM
  relative viability: 0.375
[3]; first compound 0.01581 µM
  relative viability: 0.452
[3]; first compound 0.05 µM
  relative viability: 0.423
[3]; first compound 0.5 µM
  relative viability: 0.405
[4]; first compound 0.2 µM
  relative viability: 0.939
[4]; first compound 0.6325 µM
  relative viability: 0.976
[4]; first compound 2 µM
  relative viability: 1.2
[4]; first compound 20 µM
  relative viability: 0.981

## NCI-H1563
[2]; first compound 0.2 µM
  relative viability: 0.73
[2]; first compound 0.6325 µM
  relative viability: 0.801
[2]; first compound 2 µM
  relative viability: 0.912
[2]; first compound 6.325 µM
  relative viability: 0.798
[2]; first compound 20 µM
  relative viability: 0.763

## NCI-H1650
[2]; first compound 0.2 µM
  relative viability: 0.35
[2]; first compound 0.6325 µM
  relative viability: 0.392
[2]; first compound 2 µM
  relative viability: 0.42
[2]; first compound 6.325 µM
  relative viability: 0.373
[2]; first compound 20 µM
  relative viability: 0.367
[3]; first compound 0.005 µM
  relative viability: 0.516
[3]; first compound 0.01581 µM
  relative viability: 0.66
[3]; first compound 0.05 µM
  relative viability: 0.656
[3]; first compound 0.1581 µM
  relative viability: 0.687
[3]; first compound 0.5 µM
  relative viability: 0.335
[4]; first compound 0.2 µM
  relative viability: 0.484
[4]; first compound 0.6325 µM
  relative viability: 0.374
[4]; first compound 2 µM
  relative viability: 0.442
[4]; first compound 6.325 µM
  relative viability: 0.499
[4]; first compound 20 µM
  relative viability: 0.354

## NCI-H1703
[1]; first compound 0.2 µM
  relative viability: 0.121
[1]; first compound 0.6325 µM
  relative viability: 0.176
[1]; first compound 2 µM
  relative viability: 0.148
[1]; first compound 6.325 µM
  relative viability: 0.119
[1]; first compound 20 µM
  relative viability: 0.128

## NCI-H2009
[2]; first compound 0.2 µM
  relative viability: 1.05
[2]; first compound 0.6325 µM
  relative viability: 1.01
[2]; first compound 2 µM
  relative viability: 1
[2]; first compound 20 µM
  relative viability: 0.977
[3]; first compound 0.005 µM
  relative viability: 0.28
[3]; first compound 0.01581 µM
  relative viability: 0.233
[3]; first compound 0.05 µM
  relative viability: 0.206
[3]; first compound 0.1581 µM
  relative viability: 0.235
[3]; first compound 0.5 µM
  relative viability: 0.185
[4]; first compound 0.2 µM
  relative viability: 0.356
[4]; first compound 0.6325 µM
  relative viability: 0.381
[4]; first compound 2 µM
  relative viability: 0.359
[4]; first compound 20 µM
  relative viability: 0.347

## NCI-H2023
[2]; first compound 0.2 µM
  relative viability: 0.239
[2]; first compound 0.6325 µM
  relative viability: 0.305
[2]; first compound 2 µM
  relative viability: 0.263
[2]; first compound 6.325 µM
  relative viability: 0.175
[2]; first compound 20 µM
  relative viability: 0.218
[3]; first compound 0.005 µM
  relative viability: 0.557
[3]; first compound 0.01581 µM
  relative viability: 0.712
[3]; first compound 0.05 µM
  relative viability: 0.599
[3]; first compound 0.1581 µM
  relative viability: 0.354
[3]; first compound 0.5 µM
  relative viability: 0.132
[4]; first compound 0.2 µM
  relative viability: 0.247
[4]; first compound 0.6325 µM
  relative viability: 0.234
[4]; first compound 2 µM
  relative viability: 0.228
[4]; first compound 6.325 µM
  relative viability: 0.21
[4]; first compound 20 µM
  relative viability: 0.236

## NCI-H2228
[2]; first compound 0.2 µM
  relative viability: 0.369
[2]; first compound 0.6325 µM
  relative viability: 0.333
[2]; first compound 2 µM
  relative viability: 0.4
[2]; first compound 6.325 µM
  relative viability: 0.33
[2]; first compound 20 µM
  relative viability: 0.326
[3]; first compound 0.005 µM
  relative viability: 0.589
[3]; first compound 0.01581 µM
  relative viability: 0.575
[3]; first compound 0.05 µM
  relative viability: 0.452
[3]; first compound 0.1581 µM
  relative viability: 0.322
[3]; first compound 0.5 µM
  relative viability: 0.156

## SK-LU-1
[2]; first compound 0.2 µM
  relative viability: 1.12
[2]; first compound 0.6325 µM
  relative viability: 1.03
[2]; first compound 2 µM
  relative viability: 0.942
[2]; first compound 6.325 µM
  relative viability: 0.829
[2]; first compound 20 µM
  relative viability: 1.02
[3]; first compound 0.005 µM
  relative viability: 0.452
[3]; first compound 0.01581 µM
  relative viability: 0.476
[3]; first compound 0.05 µM
  relative viability: 0.415
[3]; first compound 0.1581 µM
  relative viability: 0.384
[3]; first compound 0.5 µM
  relative viability: 0.318
[4]; first compound 0.2 µM
  relative viability: 0.6
[4]; first compound 0.6325 µM
  relative viability: 0.627
[4]; first compound 2 µM
  relative viability: 0.749
[4]; first compound 6.325 µM
  relative viability: 0.478
[4]; first compound 20 µM
  relative viability: 0.665

## SK-MES-1
[2]; first compound 0.2 µM
  relative viability: 0.972
[2]; first compound 0.6325 µM
  relative viability: 0.959
[2]; first compound 2 µM
  relative viability: 0.949
[2]; first compound 6.325 µM
  relative viability: 0.752
[2]; first compound 20 µM
  relative viability: 0.988
[3]; first compound 0.005 µM
  relative viability: 0.535
[3]; first compound 0.01581 µM
  relative viability: 0.515
[3]; first compound 0.05 µM
  relative viability: 0.495
[3]; first compound 0.1581 µM
  relative viability: 0.415
[3]; first compound 0.5 µM
  relative viability: 0.208
[4]; first compound 0.2 µM
  relative viability: 0.408
[4]; first compound 0.6325 µM
  relative viability: 0.424
[4]; first compound 2 µM
  relative viability: 0.409
[4]; first compound 6.325 µM
  relative viability: 0.335
[4]; first compound 20 µM
  relative viability: 0.348

## SW 1573
[2]; first compound 0.2 µM
  relative viability: 0.774
[2]; first compound 0.6325 µM
  relative viability: 0.845
[2]; first compound 2 µM
  relative viability: 0.869
[2]; first compound 6.325 µM
  relative viability: 0.546
[2]; first compound 20 µM
  relative viability: 0.856
[3]; first compound 0.005 µM
  relative viability: 0.712
[3]; first compound 0.01581 µM
  relative viability: 0.672
[3]; first compound 0.05 µM
  relative viability: 0.491
[3]; first compound 0.1581 µM
  relative viability: 0.367
[3]; first compound 0.5 µM
  relative viability: 0.144
[4]; first compound 0.2 µM
  relative viability: 0.609
[4]; first compound 0.6325 µM
  relative viability: 0.502
[4]; first compound 2 µM
  relative viability: 0.552
[4]; first compound 6.325 µM
  relative viability: 0.408
[4]; first compound 20 µM
  relative viability: 0.456
